How the values were obtained:
[1] = test system: Factor VIII producing cells; assay: Supplementing serum-free cell culture medium of Factor VIII producing cells with OPLS (high-cell density perfusion model); format: cell-based, Chinese Hamster; details: for Factor VIII productivity / Factor VIII protein specific activity: 24 hours, 35° C.
From the text: Cell line: The cell line used for transfection, dhfr− CHO cells DUKX-B11 cells (Urlaub, G. & Chasin, L. A. (1980) Proc. Natl. Acad. Sci. USA 77, 4216-4220), was adapted to grow in suspension cultures using serum-free medium supplemented with ribonucleosides and deoxyribonucleosides.
Expression vector: Factor VIII transcription is achieved using an adenovirus-SV40 promoter and a selection by a di-hydrofolate reductase selection marker. The expressed Factor VIII molecule consist of the heavy chain (HC) and light chain (LC) of Factor VIII connected with a small linker derived from the B-domain. The B-domain has been removed, since this allows for higher expression of Factor VIII and the biological activity of Factor VIII is retained.
Cell culturing during serum free medium supplementation experiments: For media supplement experiments cells were cultivated in a high-cell density perfusion model in 50 mL shaker tubes with vented cap at 35° C. in serum free medium, as described below. Cells were cultivated in large shaker flasks at 37° C. Cell viability was measured at cell harvest, and this was always >95%. Harvested cells were re-suspended into fresh medium. 2.5 mL of the harvested and re-suspended cells was added to 2.5 mL of fresh medium containing the supplement to give a total volume of 5 mL, with a concentration of 1×10^7 cells/mL. Shaker tubes were then placed in shaker at 35° C. and 250 rpm. After 24 hours, samples were assayed for cell density, viability, CoA, ELISA and Factor VIII protein integrity by Western blot.
CoA assay (Factor VIII activity assay): In the presence of calcium and phospholipids, Factor X is activated to Factor Xa by Factor IXa. This generation is greatly stimulated by Factor VIII, which may be considered as a cofactor in this reaction. By using optimal amounts of Ca^2+ and phospholipids and an excess of Factors IXa and X, the rate of activation of Factor X is solely dependent on the amount of Factor VIII. Factor Xa hydrolyses the chromogenic substrate S-2765 thus liberating the chromophoric group, pNA. The colour is then read photometrically at 405 nm. The generated Factor Xa and thus the intensity of colour is proportional to the Factor VIII activity in the sample. Hydrolysis of S-2765 by thrombin formed is prevented by the addition of the synthetic thrombin inhibitor, I-2581, together with the substrate (Chromogenix Coatest SP Factor VIII, diaPharma)
ELISA: Strip wells are pre-coated with sheep polyclonal antibody to human Factor VIII. Samples are diluted and applied to the wells. The Factor VIII antigen present binds to the coated antibody. After washing away unbound material, peroxidase-labeled sheep detecting antibody is applied and allowed to bind to the captured Factor VIII. The wells are again washed and a solution of TMB (the peroxidase substrate tetramethylbenzidine) is applied and allowed to react for a fixed period of time. A blue color develops which changes to yellow upon quenching the reaction with acid. The color formed is measured spectrophotometrically in a microplate reader at 450 nm. The absorbance at 450 nm is directly proportional to the quantity of Factor VIII antigen captured onto the well (VisuLize, FVIII antigen kit, Affinity biologicals). The assay is calibrated using purified B domain deleted Factor VIII.
OPLS was supplemented to serum free cell culture medium in the indicated concentration according to the experimental details described under materials and methods. The results can be seen from the below Table 3 and from FIGS. 2A and 2B.

[2] = test system: BDD Factor VIII producing cells (1C5-SF cell line); assay: Supplementing serum-free medium of BDD Factor VIII producing cells with O-phospho-L-serine and/or a plant hydrolysate; format: cell-based; details: O-phospho-L-serine 20 mM and/or plant hydrolysate 5 mg/ml, four days after seeding
Method: ELISA: Strip wells are pre-coated with sheep polyclonal antibody to human Factor VIII. Samples are diluted and applied to the wells. The Factor VIII antigen present binds to the coated antibody. After washing away unbound material, peroxidase-labeled sheep detecting antibody is applied and allowed to bind to the captured Factor VIII. The wells are again washed and a solution of TMB (the peroxidase substrate tetramethylbenzidine) is applied and allowed to react for a fixed period of time. A blue color develops which changes to yellow upon quenching the reaction with acid. The color formed is measured spectrophotometrically in a microplate reader at 450 nm. The absorbance at 450 nm is directly proportional to the quantity of Factor VIII antigen captured onto the well (VisuLize, FVIII antigen kit, Affinity biologicals). […]
F25 ELISA: ELISA: Strip wells are pre-coated with sheep polyclonal antibody to human Factor VIII. […] The color formed is measured spectrophotometrically in a microplate reader at 450 nm. The absorbance at 450 nm is directly proportional to the quantity of Factor VIII antigen captured onto the well. […]
The total Factor VIII antigen content of each culture was determined by sandwich ELISA. […]

[3] = OPLS 0.03 mM in serum free medium
[4] = OPLS 0.1 mM in serum free medium
[5] = OPLS 0.3 mM in serum free medium
[6] = OPLS 10 mM in serum free medium
[7] = OPLS 30 mM in serum free medium

## N[C@@H](COP(=O)(O)O)C(=O)O [OPLS, O-Phospho-L-Serine]
[1]; [3]
  Factor VIII productivity: 0.068 pcd
  Factor VIII protein specific activity: 11.8 U/microg
[1]; [4]
  Factor VIII productivity: 0.062 pcd
  Factor VIII protein specific activity: 12.8 U/microg
[1]; [5]
  Factor VIII productivity: 0.052 pcd
  Factor VIII protein specific activity: 12.2 U/microg
[1]; OPLS 1 mM in serum free medium
  Factor VIII productivity: 0.058 pcd
  Factor VIII protein specific activity: 12.6 U/microg
[1]; OPLS 3 mM in serum free medium
  Factor VIII productivity: 0.066 pcd
  Factor VIII protein specific activity: 15.8 U/microg
[1]; [6]
  Factor VIII productivity: 0.10 pcd
  Factor VIII protein specific activity: 15.4 U/microg
[1]; [7]
  Factor VIII productivity: 0.18 pcd
  Factor VIII protein specific activity: 15.0 U/microg
[1]; conclusion in words, FIG. 2A
  specific productivity of Factor VIII producing cells: increases
[1]; conclusion in words, FIG. 2B
  specific activity of Factor VIII: increases
[2]; F25 ELISA versus total Factor VIII antigen
  proportion of Factor VIII with intact heavy chain C-terminal in the medium: increased
[2]; CDM4CHO medium, FIG. 3A-C
  quality of recombinant Factor VIII from cell cultures (specific activity): improved
  yield of recombinant Factor VIII from cell cultures: improved

From patent US9982033B2, “Factor VIII polypeptide titers in cell cultures” (Novo Nordisk A/S, priority 2007, dated 2018)
